Results on eleven compounds are retold here after US20240051936A1, “ISOINDOLINONE COMPOUNDS” (Monte Rosa Therapeutics, Inc., priority 2021, published 2024).

Usually IC50 stands for the midpoint of a concentration-inhibition curve.

Experiment [1] addresses Full length wild-type cereblon CRBN (Homo sapiens (Human), UniProt Q96SW2). Kind of experiment: Fluorescence polarization (FP) assay, cereblon binding. The essentials:
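Full-length wild-type CRBN (80.0 nM) preincubated 30 min RT with compound (300–0.937 or 3000–9.3 nM, 12 points) in 20 mM HEPES pH 8.0, 150 NaCl, 0.5 mM TCEP, 0.05% Tween 20. Probe added at 5 nM final; FP read after 12 h (ex 590/em 675 nm), normalized to DMSO for IC50.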
A general note: Fluorescence polarisation rises when a labelled molecule tumbles more slowly, as on binding a larger partner.

The target of the next experiment is GSPT1 (Homo sapiens (Human), UniProt P15170+Q96SW2). Kind of experiment: Immunofluorescence assay for GSPT1 degradation in CAL-Si cells. In kind it is cell-based. Summed up: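 CAL-Si cells on fibronectin were treated for 6 h with serial dilutions (30 μM to 0.1 nM). After fixation, GSPT1 was immunostained and imaged by high-content analysis, with DAPI/actin cell segmentation giving mean GSPT1 intensity per cell. DC50 came from nonlinear regression after normalization to controls.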
Chain of GSPT1 (P15170 whole entry): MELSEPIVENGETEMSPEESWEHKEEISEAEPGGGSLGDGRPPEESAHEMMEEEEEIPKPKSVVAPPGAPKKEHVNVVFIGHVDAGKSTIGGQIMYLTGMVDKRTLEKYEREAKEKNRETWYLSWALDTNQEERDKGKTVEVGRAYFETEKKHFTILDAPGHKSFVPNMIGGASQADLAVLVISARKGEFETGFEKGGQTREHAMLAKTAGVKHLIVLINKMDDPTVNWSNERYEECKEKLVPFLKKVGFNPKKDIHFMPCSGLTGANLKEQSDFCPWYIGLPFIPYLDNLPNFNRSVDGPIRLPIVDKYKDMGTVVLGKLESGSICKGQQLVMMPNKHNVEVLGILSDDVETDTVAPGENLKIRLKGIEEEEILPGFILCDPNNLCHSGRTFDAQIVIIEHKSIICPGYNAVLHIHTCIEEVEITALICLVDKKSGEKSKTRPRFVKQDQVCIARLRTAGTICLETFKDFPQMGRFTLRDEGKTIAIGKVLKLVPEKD
Chain of GSPT1 (Q96SW2 whole entry): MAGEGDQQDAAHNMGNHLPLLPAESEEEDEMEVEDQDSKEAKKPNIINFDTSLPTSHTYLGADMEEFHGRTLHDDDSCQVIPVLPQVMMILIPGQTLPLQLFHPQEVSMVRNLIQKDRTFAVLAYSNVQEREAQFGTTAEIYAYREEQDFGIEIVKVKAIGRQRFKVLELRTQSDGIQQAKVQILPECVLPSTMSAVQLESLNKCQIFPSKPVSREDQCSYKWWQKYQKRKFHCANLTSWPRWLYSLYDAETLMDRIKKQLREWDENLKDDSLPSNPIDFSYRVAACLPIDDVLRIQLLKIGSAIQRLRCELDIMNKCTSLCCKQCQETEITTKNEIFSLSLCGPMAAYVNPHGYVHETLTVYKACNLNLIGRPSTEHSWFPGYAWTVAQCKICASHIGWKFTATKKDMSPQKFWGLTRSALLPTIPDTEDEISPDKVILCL
Chain of GSPT1 (Q16531 whole entry partner): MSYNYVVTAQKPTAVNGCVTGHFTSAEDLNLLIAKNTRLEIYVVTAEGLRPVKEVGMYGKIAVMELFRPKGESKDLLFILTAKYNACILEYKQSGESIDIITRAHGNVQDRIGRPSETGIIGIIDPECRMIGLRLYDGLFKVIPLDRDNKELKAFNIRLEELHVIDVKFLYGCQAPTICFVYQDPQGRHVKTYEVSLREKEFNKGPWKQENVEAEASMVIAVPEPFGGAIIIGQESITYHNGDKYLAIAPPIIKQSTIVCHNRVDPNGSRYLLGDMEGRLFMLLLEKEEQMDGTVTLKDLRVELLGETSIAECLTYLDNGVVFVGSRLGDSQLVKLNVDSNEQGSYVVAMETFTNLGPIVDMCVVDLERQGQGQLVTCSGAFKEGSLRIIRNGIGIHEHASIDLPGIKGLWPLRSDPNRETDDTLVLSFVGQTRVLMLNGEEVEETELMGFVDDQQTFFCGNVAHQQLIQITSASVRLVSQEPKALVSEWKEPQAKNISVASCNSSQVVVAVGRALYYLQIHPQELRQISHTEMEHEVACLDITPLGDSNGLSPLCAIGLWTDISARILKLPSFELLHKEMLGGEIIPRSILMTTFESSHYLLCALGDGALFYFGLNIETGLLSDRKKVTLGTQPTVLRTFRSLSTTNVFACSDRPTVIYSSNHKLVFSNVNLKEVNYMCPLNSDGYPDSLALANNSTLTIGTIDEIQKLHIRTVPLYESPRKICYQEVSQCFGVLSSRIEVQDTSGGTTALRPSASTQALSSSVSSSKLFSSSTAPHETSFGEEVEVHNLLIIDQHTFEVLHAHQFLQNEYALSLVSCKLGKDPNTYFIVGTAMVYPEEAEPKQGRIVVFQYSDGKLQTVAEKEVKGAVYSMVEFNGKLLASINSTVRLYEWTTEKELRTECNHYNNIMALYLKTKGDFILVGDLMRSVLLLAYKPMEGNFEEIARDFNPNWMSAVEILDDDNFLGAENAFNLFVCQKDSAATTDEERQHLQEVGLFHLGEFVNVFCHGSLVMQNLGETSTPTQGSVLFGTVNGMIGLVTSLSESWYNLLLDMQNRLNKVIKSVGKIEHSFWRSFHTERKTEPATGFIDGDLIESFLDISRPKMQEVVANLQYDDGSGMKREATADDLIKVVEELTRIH

Another experiment addresses CRBN (Homo sapiens (Human), UniProt Q96SW2). Nature of the experiment: HTRF binding of compounds to CRBN. Particulars: read-out: HTRF Class (HTRF IC50, Cereblon binding). Background: TR-FRET usually uses a lanthanide donor and a delayed reading to cut background.
Setting [2] is: wild-type CRBN 80.0 nM, probe 5 nM, FP measured after 12 hours, read-out: rFP IC50.
[3] abbreviates: CAL-Si cells, compounds with code A, read-out: DC50 value code.
The mark [4] stands for this setting: CAL-Si cells, treated 6 hours, read-out: Code, activity for GSPT1 degradation (DC50).
The mark [5] stands for this setting: Table 4, read-out: IF Class (ability for GSPT1 degradation).
The mark [6] stands for this setting: cereblon binding, bound, read-out: IC50 value.

Read-outs that look alike come from different tables or passages of the source. Some results are limits rather than exact numbers.

Chain of Full length wild-type cereblon CRBN (Q96SW2 whole entry): as the sequence (Q96SW2 whole entry) above
Chain of CRBN (Q96SW2 whole entry, species assumed): as the sequence (Q96SW2 whole entry) above

As to `Cc1ccc(NC(=O)OCc2ccc3c(c2F)C(=O)N(C2CCC(=O)NC2=O)C3)cc1Cl` (stereo not shown) [Compound 71, (2-(2,6-dioxopiperidin-3-yl)-4-fluoro-3-oxoisoindolin-5-yl)methyl(3-chloro-4-methylphenyl)carbamate], the IC50 in experiment [1] (setting [2]) is greater than 1900 nM; at CRBN, 100 to 1000 nM. Also, the DC50 at GSPT1 (setting [3]) and at GSPT1 (setting [4]) was less than 30 nM each time.

Take `Cc1ccc(NC(=O)OCc2ccc3c(c2Cl)C(=O)N(C2CCC(=O)NC2=O)C3)cc1Cl` (stereo not shown) [Compound 72, (4-chloro-2-(2,6-dioxopiperidin-3-yl)-3-oxoisoindolin-5-yl)methyl(3-chloro-4-methylphenyl) carbamate]: the DC50 at GSPT1 (setting [5]) was greater than 300 nM. In addition, the IC50 on CRBN is greater than 1000 nM.

With `CC1(c2ccc(NC(=O)OCc3cc(F)c4c(c3)C(=O)N(C3CCC(=O)NC3=O)C4)cn2)CC1` (stereo not shown) [Compound 75, (2-(2,6-dioxopiperidin-3-yl)-7-fluoro-3-oxoisoindolin-5-yl)methyl(6-(1-methylcyclopropyl)pyridin-3-yl)carbamate], the DC50 on GSPT1 (setting [5]) is less than 30 nM. Further, the IC50 on CRBN is 100 to 1000 nM.

Take `COc1cc(COC(=O)Nc2cccc(OC(F)F)c2)cc2c1CN(C1CCC(=O)NC1=O)C2=O` (stereo not shown) [Compound 53, (2-(2,6-dioxopiperidin-3-yl)-7-methoxy-3-oxoisoindolin-5-yl)methyl (3-(difluoromethoxy)phenyl)carbamate]: the values for the IC50 in experiment [1] (setting [6]) and in experiment [1] (setting [2]) were less than 600 nM and no more than 600 nM, respectively. In addition, the DC50 at GSPT1 (setting [3]) and on GSPT1 (setting [4]) was less than 30 nM in each case.

Take `COc1cc(COC(=O)Nc2ccc(F)c(Cl)c2)cc2c1CN(C1CCC(=O)NC1=O)C2=O` (stereo not shown) [Compound 51, (2-(2,6-dioxopiperidin-3-yl)-7-methoxy-3-oxoisoindolin-5-yl)methyl(3-chloro-4-fluorophenyl)carbamate]: the figures for the IC50 in experiment [1] (setting [6]) and in experiment [1] (setting [2]) were less than 600 nM and 600 to 1200 nM, respectively. In addition, the DC50 at GSPT1 (setting [4]) is 30 to 300 nM.

In the case of `CC(C)(C)c1cccc(NC(=O)OCc2cc(F)c3c(c2)C(=O)N(C2CCC(=O)NC2=O)C3)c1` (stereo not shown) [Compound 25, (2-(2,6-dioxopiperidin-3-yl)-7-fluoro-3-oxoisoindolin-5-yl)methyl (3-(tert-butyl)phenyl)carbamate], the IC50 in experiment [1] (setting [2]) is greater than 1900 nM. Further, the DC50 at GSPT1 (setting [3]) and at GSPT1 (setting [4]) was less than 30 nM in each case.

As to `COc1cc(COC(=O)Nc2ccc(-c3ccccc3C)nc2)cc2c1CN(C1CCC(=O)NC1=O)C2=O` (stereo not shown) [Compound 60, (2-(2,6-dioxopiperidin-3-yl)-7-methoxy-3-oxoisoindolin-5-yl)methyl (6-(o-tolyl)pyridin-3-yl)carbamate], the IC50 was less than 600 nM in experiment [1] (setting [6]) and no more than 600 nM in experiment [1] (setting [2]). The DC50 at GSPT1 (setting [3]) and at GSPT1 (setting [4]) was less than 30 nM throughout.

For `COc1cc(COC(=O)Nc2ccc(F)c(OC(F)F)c2)cc2c1CN(C1CCC(=O)NC1=O)C2=O` (stereo not shown) [Compound 46, (2-(2,6-dioxopiperidin-3-yl)-7-methoxy-3-oxoisoindolin-5-yl)methyl(3-(difluoromethoxy)-4-fluorophenyl)carbamate], the IC50 was less than 600 nM in experiment [1] (setting [6]) and 600 to 1200 nM in experiment [1] (setting [2]). For the same compound, at GSPT1 (setting [4]), the DC50 was 30 to 300 nM.

In the case of `O=C1CCC(N2Cc3c(F)cc(COC(=O)Nc4cc(-c5ccccc5)ccn4)cc3C2=O)C(=O)N1` (stereo not shown) [Compound 24, (2-(2,6-dioxopiperidin-3-yl)-7-fluoro-3-oxoisoindolin-5-yl)methyl(4-phenylpyridin-2-yl)carbamate], the IC50 in experiment [1] (setting [2]) is greater than 1900 nM. Further, on GSPT1 (setting [4]), the DC50 lay in the range of 30 to 300 nM.

Turning to `COc1cc(COC(=O)Nc2cc(C)cc(C)c2)cc2c1CN(C1CCC(=O)NC1=O)C2=O` (stereo not shown) [Compound 52, (2-(2,6-dioxopiperidin-3-yl)-7-methoxy-3-oxoisoindolin-5-yl)methyl (3,5-dimethylphenyl)carbamate], the 50% inhibitory concentration (IC50) in experiment [1] (setting [6]) was less than 600 nM; in experiment [1] (setting [2]), no more than 600 nM. In addition, the DC50 on GSPT1 (setting [4]) is 30 to 300 nM.

For `O=C1CCC(N2Cc3c(F)cc(COC(=O)Nc4ccc(-c5ccccc5F)nc4)cc3C2=O)C(=O)N1` (stereo not shown) [Compound 18, (2-(2,6-dioxopiperidin-3-yl)-7-fluoro-3-oxoisoindolin-5-yl)methyl(6-(2-fluorophenyl)pyridin-3-yl)carbamate], the values for the IC50 in experiment [1] (setting [6]) and in experiment [1] (setting [2]) were less than 600 nM and 1200 to 1900 nM, respectively. For the same compound, the DC50 on GSPT1 (setting [3]) and on GSPT1 (setting [4]) was less than 30 nM each time.
